In ChEMBL document CHEMBL4196088, “Induction of cell killing and autophagy by amphiphilic pyrrolidine derivatives on human pancreatic cancer cells” (Eur J Med Chem, 2018):
Active and inactive are the calls of the source. The calls are words filed in the database; no cut-off is given here.

Assays:
[1] = tested on: HeLa; assay: Growth inhibition of human HeLa cells after 72 hrs; type: functional, cell-based
[2] = tested on: BXPC-3; assay: Induction of apoptosis in human BxPC3 cells assessed as accumulation at sub-G0/G1 phase at 20 uM after 48 hrs in presence of autophagy inhibitor chloroquine by propidium iodide staining based flow cytometry; type: functional, cell-based
[3] = tested on: MIA PaCa-2; assay: Induction of apoptosis in human MIAPaCa2 cells assessed as increase in cleaved PARP protein expression at 20 uM after 15 to 48 hrs by Western blot analysis; type: functional, cell-based
[4] = tested on: PANC-1; assay: Induction of apoptosis in human PANC1 cells assessed as accumulation at sub-G0/G1 phase at 10 uM after 72 hrs by propidium iodide staining based flow cytometry (reference value: 1.6 to 3.2%); type: functional
[5] = tested on: PANC-1; assay: Induction of apoptosis in human PANC1 cells assessed as accumulation at sub-G0/G1 phase at 10 uM after 24 hrs by propidium iodide staining based flow cytometry (reference value: 0.6 to 0.7%); type: functional
[6] = tested on: PK9; assay: Induction of apoptosis in human PK9 cells assessed as accumulation at sub-G0/G1 phase at 10 uM after 48 hrs by propidium iodide staining based flow cytometry (reference value: 3.8%); type: functional
[7] = tested on: Fibroblast; assay: Induction of apoptosis in human primary fibroblasts at 20 uM after 72 hrs by propidium iodide staining based flow cytometry (reference value: 6.7%); type: cell-based
[8] = tested on: BXPC-3; assay: Induction of apoptosis in human BxPC3 cells harboring pSFFV-Bcl-XL assessed as accumulation at sub-G0/G1 phase at 20 uM by propidium iodide staining based flow cytometry; type: functional, cell-based; settings: TDE = time-dependent effect
[9] = tested on: BXPC-3; assay: Induction of apoptosis in human BxPC3 cells harboring pSFFV-Bcl-XL assessed as accumulation at sub-G0/G1 phase at 10 uM after 48 hrs by propidium iodide staining based flow cytometry (reference value: 1.9%); type: functional
[10] = tested on: BXPC-3; assay: Induction of autophagy in human BxPC3 cells assessed as increase in LC3-2 protein expression at 20 uM after 48 hrs in presence of autophagy inhibitor bafilomycin A1 by Western blot analysis; type: functional, cell-based
[11] = Induction of apoptosis in HPNE cells assessed as accumulation at sub-G0/G1 phase at 10 uM after 72 hrs by propidium iodide staining based flow cytometry (reference value: 6.6%); type: cell-based; settings: human
[12] = tested on: SK-BR-3; assay: Growth inhibition of human SKBR3 cells after 72 hrs; type: functional, cell-based; settings: SK-BR-3, 72 h
[13] = tested on: PANC-1; assay: Induction of apoptosis in human PANC1 cells assessed as accumulation at sub-G0/G1 phase at 20 uM by propidium iodide staining based flow cytometry; type: functional, cell-based; settings: TDE = time-dependent effect
[14] = tested on: BXPC-3; assay: Induction of apoptosis in human BxPC3 cells assessed as accumulation at sub-G0/G1 phase at 20 uM after 24 hrs by propidium iodide staining based flow cytometry (reference value: 2.3%); type: functional
[15] = tested on: Jurkat; assay: Growth inhibition of human Jurkat cells after 72 hrs; type: functional, cell-based
[16] = tested on: BXPC-3; assay: Induction of autophagy in human BxPC3 cells assessed as increase in LC3-2 protein expression at 20 uM after 48 hrs in presence of autophagy inhibitor 3-MA by Western blot analysis; type: functional, cell-based
[17] = tested on: BXPC-3; assay: Induction of apoptosis in human BxPC3 cells assessed as accumulation at sub-G0/G1 phase at 20 uM by propidium iodide staining based flow cytometry; type: functional, cell-based; settings: TDE = time-dependent effect
[18] = tested on: NCI-H460; assay: Growth inhibition of human NCI-H460 cells after 72 hrs; type: functional, cell-based; settings: NCI-H460, 72 h
[19] = tested on: Fibroblast; assay: Induction of apoptosis in human primary fibroblasts at 20 uM after 48 hrs by propidium iodide staining based flow cytometry (reference value: 6.1%); type: cell-based
[20] = tested on: BXPC-3; assay: Induction of apoptosis in human BxPC3 cells assessed as accumulation at sub-G0/G1 phase at 20 uM after 48 hrs in presence of autophagy inhibitor 3-MA by propidium iodide staining based flow cytometry; type: functional, cell-based
[21] = Induction of apoptosis in HPNE cells assessed as accumulation at sub-G0/G1 phase at 10 uM after 24 hrs by propidium iodide staining based flow cytometry (reference value: 0.6%); type: cell-based; settings: human
[22] = tested on: BXPC-3; assay: Induction of apoptosis in human BxPC3 cells assessed as accumulation at sub-G0/G1 phase at 10 uM after 72 hrs by propidium iodide staining based flow cytometry (reference value: 3.4%); type: functional
[23] = tested on: BXPC-3; assay: Induction of apoptosis in human BxPC3 cells assessed as increase in cleaved PARP protein expression at 20 uM after 15 to 48 hrs by Western blot analysis; type: functional, cell-based
[24] = tested on: MIA PaCa-2; assay: Induction of apoptosis in human MIAPaCa2 cells assessed as live cells at 20 uM after 48 hrs by Annexin V-FITC/propidium iodide staining based flow cytometry (reference value: 86.79%); type: functional
[25] = tested on: BXPC-3; assay: Induction of apoptosis in human BxPC3 cells harboring pSFFV-Bcl-XL assessed as accumulation at sub-G0/G1 phase at 10 uM after 24 hrs by propidium iodide staining based flow cytometry (reference value: 1.5%); type: functional
[26] = tested on: BXPC-3; assay: Induction of apoptosis in human BxPC3 cells assessed as accumulation at sub-G0/G1 phase at 20 uM after 48 hrs by propidium iodide staining based flow cytometry (reference value: 2.8%); type: functional
[27] = tested on: ACHN; assay: Growth inhibition of human ACHN cells after 72 hrs; type: functional, cell-based
[28] = tested on: PK9; assay: Induction of apoptosis in human PK9 cells harboring ATG7 shRNA at 20 uM after 24 hrs by Annexin V/7-AAD staining based flow cytometry; type: functional, cell-based
[29] = tested on: PK9; assay: Induction of apoptosis in human PK9 cells harboring BECN1 shRNA at 20 uM after 24 hrs by Annexin V/7-AAD staining based flow cytometry; type: functional, cell-based
[30] = Induction of apoptosis in HPNE cells assessed as accumulation at sub-G0/G1 phase at 10 uM after 48 hrs by propidium iodide staining based flow cytometry (reference value: 0.7%); type: cell-based; settings: human
[31] = tested on: MIA PaCa-2; assay: Induction of apoptosis in human MIAPaCa2 cells assessed as late apoptotic cells at 20 uM after 48 hrs by Annexin V-FITC/propidium iodide staining based flow cytometry (reference value: 7.4%); type: functional
[32] = tested on: PANC-1; assay: Growth inhibition of human PANC1 cells after 72 hrs by XTT assay; type: functional, cell-based; settings: PANC-1, 72 h
[33] = tested on: BXPC-3; assay: Growth inhibition of human BxPC3 cells after 72 hrs by XTT assay; type: functional, cell-based; settings: BXPC-3, 72 h

| SMILES | Activity [2] | Activity [3] | Activity [4] [%] | Activity [5] [%] | Activity [6] [%] | Activity [7] [%] | Activity [9] [%] | Activity [11] [%] | Activity [14] [%] | Activity [19] [%] | Activity [20] | Activity [21] [%] | Activity [22] [%] | Activity [23] | Activity [24] [%] | Activity [25] [%] | Activity [26] [%] | Activity [30] [%] | Activity [31] [%] | other results |
| --- | --- | --- | --- | --- | --- | --- | --- | --- | --- | --- | --- | --- | --- | --- | --- | --- | --- | --- | --- | --- |
| CCCCCC/C=C\CCCCCCCCOC[C@H]1NC[C@H](O)[C@@H]1O | Active | Active | 18.6 | 6.7 | 6.1 | 18.7 | 3.7 | 42.1 | 15.8 | 13.9 | Active | 23.9 | 20.8 | Active | 4.4 | 2 | 33.7 | 30.8 | 44.69 | IC50 [1]: 2000 nM; Activity [8]: Tde; Activity [10]: Active; IC50 [12]: 6 µM; Activity [13]: Tde; IC50 [15]: 1000 nM; Activity [16]: inactive; Activity [17]: Tde; IC50 [18]: 9 µM; IC50 [27]: 3000 nM; Activity [28]: Active; Activity [29]: Active |
| CCCCCCCCCCCCCCCCCCOCC(COP(=O)([O-])OCC[N+](C)(C)C)OC (configuration not stated) [EDELFOSINE] | Active | Active | 15.8 | 3.2 | 8 | 9.8 | 3.7 | 4.8 | 16.8 | 8.6 | Active | 1.9 | 24.3 | Active | 2.49 | 1.8 | 28.9 | 3.5 | 45.92 | IC50 [32]: 25.7 µM; IC50 [33]: 18.8 µM |
